Measured values: the supplement of paper PMC9663587

Assays:
[1] = test system: MDAMB231; assay: GRmax, 72 h; higher = less effect;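 also: breast cell lines in 384-well plates, nine doses across a 10^4 range, Dye Drop imaging of viable cells vs DMSO and time-zero plates, GR 0 means no net growth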
[2] = test system: SUM159; assay: GRmax, 72 h; higher = less effect;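 also: breast cell lines in 384-well plates, nine doses across a 10^4 range, Dye Drop imaging of viable cells vs DMSO and time-zero plates, GR 0 means no net growth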
[3] = test system: SUM229PE; assay: GRmax, 72 h; higher = less effect;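 also: breast cell lines in 384-well plates, nine doses across a 10^4 range, Dye Drop imaging of viable cells vs DMSO and time-zero plates, GR 0 means no net growth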
[4] = test system: CAL51; assay: area over the GR curve, 72 h; higher = more effect;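 also: Dye Drop or Deep Dye Drop imaging of viable cells in 384-well plates (Hoechst nuclei, LIVE/DEAD dye), nine half-log doses, GR normalized to DMSO controls and time-zero plates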
[5] = test system: CAMA1; assay: area over the GR curve, 72 h; higher = more effect;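 also: Dye Drop or Deep Dye Drop imaging of viable cells in 384-well plates (Hoechst nuclei, LIVE/DEAD dye), nine half-log doses, GR normalized to DMSO controls and time-zero plates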
[6] = test system: HCC1954; assay: area over the GR curve, 72 h; higher = more effect;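 also: Dye Drop or Deep Dye Drop imaging of viable cells in 384-well plates (Hoechst nuclei, LIVE/DEAD dye), nine half-log doses, GR normalized to DMSO controls and time-zero plates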
[7] = test system: HCC38; assay: area over the GR curve, 72 h; higher = more effect;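 also: Dye Drop or Deep Dye Drop imaging of viable cells in 384-well plates (Hoechst nuclei, LIVE/DEAD dye), nine half-log doses, GR normalized to DMSO controls and time-zero plates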
[8] = test system: HTERT_HME1; assay: area over the GR curve, 72 h; higher = more effect
[9] = test system: MDAMB175VII; assay: area over the GR curve, 72 h; higher = more effect
[10] = test system: MGH312; assay: area over the GR curve, 72 h; higher = more effect
[11] = test system: SUM52PE; assay: area over the GR curve, 72 h; higher = more effect
[12] = test system: ZR751; assay: area over the GR curve, 72 h; higher = more effect
[13] = test system: ZR7530; assay: area over the GR curve, 72 h; higher = more effect

Row | Structure (SMILES) | GRmax, 72 h [1] | GRmax, 72 h [2] | GRmax, 72 h [3] | area over the GR curve [4] | area over the GR curve [5] | area over the GR curve [6] | area over the GR curve [7] | area over the GR curve [8] | area over the GR curve [9] | area over the GR curve [10] | area over the GR curve [11] | area over the GR curve [12] | area over the GR curve [13] | GRmax, 72 h ([1]; main component drawn) | GRmax, 72 h ([2]; main component drawn) | area over the GR curve ([4]; main component drawn) | area over the GR curve ([5]; main component drawn) | area over the GR curve ([6]; main component drawn) | area over the GR curve ([7]; main component drawn) | area over the GR curve ([8]; main component drawn)
1 | COc1ccc2c(c1)[C@]1(C[C@H]1c1ccc3c(/C=C/c4ccc(CN5C[C@@H](C)O[C@@H](C)C5)cc4)n[nH]c3c1)C(=O)N2 | 0.0653 GR | -0.119 GR | -0.0183 GR | 0.562 GR | 0.587 GR | 0.995 GR | 0.852 GR | 0.734 GR | 0.589 GR | 1.19 GR | 0.516 GR | 0.451 GR | 0.509 GR | – | – | – | – | – | – | –
2 | COc1cccc(OCCCN)c1-c1cc(Nc2cnc(C#N)cn2)n[nH]1 | -0.172 GR | -0.0281 GR | -0.112 GR | 0.528 GR | 0.483 GR | 1.21 GR | 0.858 GR | 0.596 GR | 0.245 GR | 0.0934 GR | 0.425 GR | 0.3 GR | 0.0681 GR | – | – | – | – | – | – | –
3 | CC(=O)Nc1cccc(-n2c(=O)n(C3CC3)c(=O)c3c(Nc4ccc(I)cc4F)n(C)c(=O)c(C)c32)c1 (max 1 µM) | -0.178 GR | 0.404 GR | 0.172 GR | 0.0662 GR | 0.169 GR | 0.401 GR | 0.207 GR | 0.434 GR | 0.938 GR | -0.169 GR | 0.224 GR | 0.328 GR | 0.219 GR | – | – | – | – | – | – | –
4 | CCc1cnn2c(NCc3ccc[n+]([O-])c3)cc(N3CCCC[C@H]3CCO)nc12 (max 1 µM) | -0.42 GR | -0.122 GR | -0.21 GR | 0.599 GR | 0.606 GR | 0.629 GR | 0.62 GR | 0.552 GR | 0.607 GR | 0.867 GR | 0.491 GR | 0.468 GR | 0.713 GR | – | – | – | – | – | – | –
5 | CC(=O)c1c(C)c2cnc(Nc3ccc(N4CCNCC4)cn3)nc2n(C2CCCC2)c1=O (max 3.162 µM) | 0.206 GR | 0.45 GR | 0.4 GR | 0.25 GR | 0.353 GR | 0.176 GR | 0.371 GR | 0.259 GR | 0.763 GR | -0.129 GR | 0.201 GR | 0.12 GR | 0.284 GR | – | – | – | – | – | – | –
6 | CCCCOc1c(C(=O)c2c(F)cc(C)cc2F)c[nH]c2nncc1-2 (max 10 µM) | 0.227 GR | 0.26 GR | 0.0454 GR | 0.226 GR | 0.842 GR | 0.835 GR | 0.768 GR | 0.862 GR | 0.787 GR | 0.628 GR | 0.464 GR | 0.209 GR | 0.481 GR | – | – | – | – | – | – | –
7 | CCN1CCN(Cc2ccc(Nc3ncc(F)c(-c4cc(F)c5nc(C)n(C(C)C)c5c4)n3)nc2)CC1 (max 10 µM) | -0.487 GR | -0.0575 GR | 0.146 GR | 0.578 GR | 0.613 GR | 0.458 GR | 0.64 GR | 0.428 GR | 0.901 GR | 0.124 GR | 0.341 GR | 0.429 GR | 0.546 GR | – | – | – | – | – | – | –
8 | CNc1nc(-c2ccc3c(N)n[nH]c3c2)cc(N2C[C@@H](C(=O)NC3CCCCC3)CC[C@H]2C)n1 (max 10 µM) | 0.662 GR | 0.6 GR | 0.696 GR | 0.0516 GR | -0.0192 GR | 0.0806 GR | 0.0564 GR | 0.128 GR | 0.59 GR | 0.718 GR | 0.124 GR | 0.257 GR | 0.408 GR | – | – | – | – | – | – | –
9 | CO[C@@H](C)Cn1c(=O)n(C)c2cnc3ccc(-c4cncc(C(C)(C)O)c4)cc3c21 (max 10 µM) | -0.136 GR | 0.0637 GR | 0.0211 GR | 0.631 GR | 0.972 GR | 0.822 GR | 0.664 GR | 0.676 GR | 1.32 GR | 1.21 GR | 0.75 GR | 0.691 GR | 0.726 GR | – | – | – | – | – | – | –
10 | Cc1nn(C)c(COc2ccc(N3CCN(S(=O)(=O)N(C)C)CC3)cc2)c1-c1cccc2c(CCCOc3cccc4ccccc34)c(C(=O)O)n(CCN3CCOCC3)c12 (max 10 µM) | 0.957 GR | 0.83 GR | 0.547 GR | 0.0073 GR | 0.0026 GR | -0.0351 GR | 0.0151 GR | 0.339 GR | 0.0271 GR | -0.123 GR | 0.0586 GR | -0.0518 GR | 0.0093 GR | – | – | – | – | – | – | –
11 | Cc1c(N)nc([C@H](CC(N)=O)NC[C@H](N)C(N)=O)nc1C(=O)N[C@H](C(=O)N[C@H](C)[C@@H](O)[C@H](C)C(=O)N[C@H](C(=O)NCCc1nc(-c2nc(C(=O)NCCC[S+](C)C)cs2)cs1)[C@@H](C)O)[C@@H](OC1OC(CO)C(O)C(O)C1OC1OC(CO)C(O)C(OC(N)=O)C1O)c1cnc[nH]1 (stereo partly drawn) [Bleomycin] (max 10 µM) | – | – | – | – | – | – | – | – | – | – | – | – | – | 0.436 GR | -0.21 GR | 0.485 GR | 0.274 GR | 0.617 GR | 0.485 GR | 0.48 GR
12 | N.N.[Cl][Pt][Cl] [Cisplatin] (max 10 µM) | 0.272 GR | 0.0896 GR | – | 0.214 GR | 0.328 GR | 0.275 GR | 0.257 GR | 0.297 GR | – | – | – | – | – | – | – | – | – | – | – | –
13 | COc1cc([C@@H]2c3cc4c(cc3[C@@H](O[C@@H]3O[C@@H]5CO[C@@H](C)O[C@H]5[C@H](O)[C@H]3O)[C@H]3COC(=O)[C@H]23)OCO4)cc(OC)c1O [Etoposide] (max 10 µM) | 0.12 GR | -0.279 GR | – | 0.467 GR | 0.571 GR | 0.501 GR | 0.449 GR | 0.542 GR | – | – | – | – | – | – | – | – | – | – | – | –
14 | CC[C@@]1(O)C(=O)OCc2c1cc1n(c2=O)Cc2cc3c(CN(C)C)c(O)ccc3nc2-1 [Topotecan] (max 10 µM) | -0.324 GR | -0.454 GR | – | 0.856 GR | 1.05 GR | 0.869 GR | 1.07 GR | 0.873 GR | – | – | – | – | – | – | – | – | – | – | – | –
